Literature values as cited in patent publication US20210338635A1, “Dosage Regimen for the Treatment of Multiple Sclerosis with a S1P Receptor Modulator” (Argentum Pharmaceuticals LLC, priority 2020, published 2021).

Assays:
[1] = humans; relapsing multiple sclerosis, oral
[2] = administration of 1.25 mg; healthy patients; treatment initiation

| Compound | efficacy in the treatment of multiple sclerosis [1] | decrease in heart rate [2] |
| --- | --- | --- |
| CCCCCCCCc1ccc(CCC(N)(CO)CO)cc1 [FTY720] | efficacy in the treatment of multiple sclerosis has been shown in humans | – |
| CCc1cc(/C(C)=N/OCc2ccc(C3CCCCC3)c(C(F)(F)F)c2)ccc1CN1CC(C(=O)O)C1 [BAF-312, 1-({4-[(1E)-1-({[4-Cyclohexyl-3(trifluoromethyl)phenyl]methoxy}imino)ethyl]-2-ethylphenyl}methyl)azetidine-3-carboxylic acid] | – | approximately 8 beets/min |
